From PubChem BioAssay (NCI)
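Exposure lasted 48 hours, with cells grown in 96-well plates and compounds tested at five concentrations. At the TGI there is no net growth.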

Tests used:
Test in all cases: NCI tumour cell line growth inhibition, 48 h
TK-10 renal = tested on: TK-10 renal
MALME-3M melanoma = tested on: MALME-3M melanoma
HOP-62 NSCLC = tested on: HOP-62 NSCLC
K-562 leukemia = tested on: K-562 leukemia
M14 melanoma = tested on: M14 melanoma
SF-295 CNS = tested on: SF-295 CNS
UO-31 renal = tested on: UO-31 renal
OVCAR-4 ovarian = tested on: OVCAR-4 ovarian
OVCAR-3 ovarian = tested on: OVCAR-3 ovarian
SF-539 CNS = tested on: SF-539 CNS
NCI-H460 lung = tested on: NCI-H460 lung
DMS 273 small cell lung = tested on: DMS 273 small cell lung
SNB-19 CNS = tested on: SNB-19 CNS
KM12 colon = tested on: KM12 colon
HCC-2998 colon = tested on: HCC-2998 colon
SF-268 CNS = tested on: SF-268 CNS
SK-MEL-5 melanoma = tested on: SK-MEL-5 melanoma
HCT-116 colon = tested on: HCT-116 colon
RXF 393 renal = tested on: RXF 393 renal
MDA-MB-435 = tested on: MDA-MB-435

SMILES	TGI (TK-10 renal) [µM]	TGI (MALME-3M melanoma) [µM]	TGI (HOP-62 NSCLC) [µM]	TGI (K-562 leukemia) [µM]	TGI (M14 melanoma) [µM]	TGI (SF-295 CNS) [µM]	TGI (UO-31 renal) [µM]	TGI (OVCAR-4 ovarian) [µM]	TGI (OVCAR-3 ovarian) [µM]	TGI (SF-539 CNS) [µM]	TGI (NCI-H460 lung) [µM]	TGI (DMS 273 small cell lung) [µM]	TGI (SNB-19 CNS) [µM]	TGI (KM12 colon) [µM]	TGI (HCC-2998 colon) [µM]	TGI (SF-268 CNS) [µM]	TGI (SK-MEL-5 melanoma) [µM]	TGI (HCT-116 colon) [µM]	TGI (RXF 393 renal) [µM]	TGI (MDA-MB-435) [µM]
CC(C)COC(=O)c1ccc(N=Cc2ccc(C=Nc3ccc(C(=O)OCC(C)C)cc3)cc2)cc1	> 100	> 100	> 100	> 100	> 100	> 100	> 100	> 100	> 100	> 100	> 100	> 100	> 100	> 100	> 100	> 100				
O=S1(=O)OCCOS(=O)(=O)C1(Cl)Cl	> 100	> 100	> 100	> 100	> 100	> 100	> 100	> 100	> 100	> 100		> 100	> 100	> 100	> 100	> 100	> 100	> 100		
O=C1C[C@@H]2[C@@H](CCC23CCCC3)N1	> 100	> 100	> 100	> 100	> 100	> 100	> 100	> 100	> 100	> 100	> 100	> 100	> 100	> 100	> 100	> 100	> 100	> 100	> 100	
O=C1N=CN=C2C=CC(Cl)=C(I)C12 (stereo unspecified)	> 100	> 100	> 100	> 100	> 100	> 100	65.7	> 100	> 100		> 100	> 100	> 100	> 100	> 100	> 100	> 100	> 100	70.8	
O=C(CSc1nnc(Cc2ccccc2)o1)Nc1ccc(Cl)cc1[N+](=O)[O-]	30.8	30.2	31.3	98.7	32.9	34.2	49.4	33.9				33.9	31			40.2	30.9	27.7	33.4	
CCCCCCCCCC(=O)NCCc1c[nH]c2ccc(OC)cc12	35.1	34.3	31.1	> 100	34	32	26.1	> 100	30.3	46	50.1		31.2	> 100	36.1	34.2	34.3	43.5	38	60.3
COc1ccc2nc3cc([N+](=O)[O-])ccc3c(NNc3ccc([N+](=O)[O-])cc3)c2c1	> 24.2	> 92.5	> 100	> 100	> 100	> 100	> 100	> 100	> 100	> 100	> 59.7		> 76.8	> 100	69.4	> 100	61.4	> 100	> 100	> 100
CN1C(=S)CSc2ccccc21	> 100	> 100	> 100	> 100	> 100		> 100	> 100	> 100	> 100	> 100	> 100	> 100	> 100		> 100	> 100	> 100	> 100	
CC1(C)CCCC2CC2CCC(C)(C)C1=O (stereo unspecified)	> 100	> 100	> 100	40.1	> 100	> 100	> 100	> 100	82.7	> 100	> 100		> 100	> 100	21.7	> 100	> 100	> 100	87.7	> 100
COC(=O)C1CC(c2ccc(Cl)cc2)=NO1 (stereo unspecified)	> 100	> 100	> 100	> 100	> 100	> 100	> 100	> 100	> 100	> 100	> 100	> 100		> 100	> 100	> 100	> 100	> 100		
CC(C)C1CC(CO)(CNc2nc(N)nc(Cl)c2/C=N\O)C1 (stereo unspecified)	61.1	16	> 100	> 100	26.1	> 68.2	36.3	28.3	36.9	49.3	3.14		> 100	18.3	17.8	> 79.5	2.82	34	55.1	28.9
CC(C)(C)C(O)CC(O)(C(F)(F)F)C(F)(F)F (stereo unspecified)	> 100	> 100	> 100	> 100	> 100	> 100	> 100	> 100	> 100	> 100	> 100		> 100	> 100	> 100	> 100	> 100	> 100	> 100	> 100
COc1cccc(C2c3cc4c(cc3OC(NNC(N)=O)C2C)OCO4)c1O (stereo unspecified)	> 75.5	> 67.7	54	> 100	23.6	14	> 75.3	> 100	29.6	6.55	> 26.4		> 100	> 79.2	35.4	> 72.2	8.54	> 38.9	34.3	0.523
COC(=O)[C@H](C)NC(=O)C1(CNC(=O)[C@H](C)NC(=O)OC(C)(C)C)Cc2ccccc2-c2ccccc2C1	> 59.2	36.1	> 100	54	> 78.5	51.6	11.6	> 63.5	49.6	> 58.1	42.9		> 100	40.2	> 59.8	52.5	> 55	> 54.1	> 88.9	38.2
Cc1cccc2c(N)c3cccc(C(=O)NCC[N+](C)(C)Cc4ccc(S(C)(=O)=O)cc4)c3nc12	> 100	> 100	> 100	> 52.2	> 100	> 100	> 100	> 100	> 100	> 100	> 100		> 100	> 100	> 100	> 100	> 100	> 100	> 100	> 100
C=CCOC1CC(n2cnc3c(N)ncnc32)OC1CO (stereo unspecified)	> 100	> 100	> 100	> 100	> 100	> 100	> 100	> 100	> 100	> 100	> 100	> 100	> 100	> 100	> 100	> 100	> 100	> 100		
CC(O)CC(=O)CO[C@H]1[C@H](O)[C@@H](O)[C@@H](O)[C@@H]2NC(=O)c3c(cc4c(c3O)OCO4)[C@H]21 (stereo partly specified)	0.238	0.0529	0.319	4.14	0.149	0.314	0.588	0.287	0.609	0.0712	0.188		0.0754	0.202	0.0609	0.0626	0.0623	0.345	0.131	0.175
CC1OC(OC2C(OC(=O)[C@]34CCC(C)(C)CC3C3=CCC5[C@@]6(C)C[C@H](O)[C@H](OC7OC(COC8OC(CO)C(O)C(O)C8O)C(O)C(O)C7O)[C@@](C)(C(=O)O)C6CC[C@@]5(C)C3(C)CC4)OCC(O)C2O)C(O)C(O)C1OC1OCC(O)C(O)C1O (stereo partly specified)	> 100	> 100	> 100	> 100		> 100	> 100		> 100	> 100	> 100	> 100	> 100	> 100	> 100	> 100	> 100		> 100	
CCOC(=O)c1cc(C2=CCNC2=O)c(-c2cc(C)no2)[nH]1	> 100	> 100	> 100	> 100	> 100	> 100	> 100	> 100	> 100	> 100	> 100		> 100	> 100	> 100	> 100	> 100	> 100	> 100	> 100
CCOc1cc(/C=N/c2nc3cc4sc(/N=C/c5ccc(O)c(OCC)c5)nc4cc3s2)ccc1O	> 100	> 100	> 100	> 100	> 100	> 100	> 100	> 100	> 100	62.3	> 100		> 100	> 100	> 100	> 100	> 100	> 100	> 100	> 100
O=C(CCc1ccc(O)c(O)c1)NCCc1ccccc1	> 100	> 100	> 100	49.6	> 100	> 100	> 74.5	> 54.2	> 100	> 89.9	> 100		> 100	> 100	> 100	> 100	> 48.7	> 31.6	> 100	29.3
C=C[C@]1(C)CC(=O)C(C(C)C=O)[C@]12C(=O)Oc1cccc(C)c1C2=O (stereo partly specified)	28.2	34.5	35.9	53.2	29.8	28.9	28.9	35.5	29.6	31	30.5		24.6	28.8	31.7	43.3	25.9	20.6	27.6	29.3
Brc1c2c(c(Br)c3nsnc13)N=S=N2	47.3	> 72.6	15.9	33.3	50.5	> 70.8	56.7	> 55.7	68.6	57.6	> 69.3		> 70	> 100	> 100	75.4	42.5	> 69.2	35.9	> 74.4
Cc1ccc(S(=O)(=O)NN=C2C(C)(C)CC2(C)C)cc1	> 100	> 100	> 100	> 100	> 100	> 100	> 100	> 100	> 100	> 100	> 100		> 100	> 100	> 100	> 100	> 100	> 100	> 100	> 100
O=C1C=CC(=O)c2c(O)c(NCCO)c(Cl)c(O)c21	> 10	2.71	> 8.35	8.23	4.78	4.81	> 10	1.49	7.41	5.73	8.68		> 10	> 10	> 7.21	> 10	2.75	3.55	3.46	4.23
